Biological target: T1, ERCC1/XPF (XPF endonuclease) (Homo sapiens, UniProt Q92889)
T1 construct: gene ERCC4; with ERCC1
Assay: fluorescence-based DNA incision assay with purified ERCC1/XPF
Format: biochemical

T1 sequence (Q92889 whole entry): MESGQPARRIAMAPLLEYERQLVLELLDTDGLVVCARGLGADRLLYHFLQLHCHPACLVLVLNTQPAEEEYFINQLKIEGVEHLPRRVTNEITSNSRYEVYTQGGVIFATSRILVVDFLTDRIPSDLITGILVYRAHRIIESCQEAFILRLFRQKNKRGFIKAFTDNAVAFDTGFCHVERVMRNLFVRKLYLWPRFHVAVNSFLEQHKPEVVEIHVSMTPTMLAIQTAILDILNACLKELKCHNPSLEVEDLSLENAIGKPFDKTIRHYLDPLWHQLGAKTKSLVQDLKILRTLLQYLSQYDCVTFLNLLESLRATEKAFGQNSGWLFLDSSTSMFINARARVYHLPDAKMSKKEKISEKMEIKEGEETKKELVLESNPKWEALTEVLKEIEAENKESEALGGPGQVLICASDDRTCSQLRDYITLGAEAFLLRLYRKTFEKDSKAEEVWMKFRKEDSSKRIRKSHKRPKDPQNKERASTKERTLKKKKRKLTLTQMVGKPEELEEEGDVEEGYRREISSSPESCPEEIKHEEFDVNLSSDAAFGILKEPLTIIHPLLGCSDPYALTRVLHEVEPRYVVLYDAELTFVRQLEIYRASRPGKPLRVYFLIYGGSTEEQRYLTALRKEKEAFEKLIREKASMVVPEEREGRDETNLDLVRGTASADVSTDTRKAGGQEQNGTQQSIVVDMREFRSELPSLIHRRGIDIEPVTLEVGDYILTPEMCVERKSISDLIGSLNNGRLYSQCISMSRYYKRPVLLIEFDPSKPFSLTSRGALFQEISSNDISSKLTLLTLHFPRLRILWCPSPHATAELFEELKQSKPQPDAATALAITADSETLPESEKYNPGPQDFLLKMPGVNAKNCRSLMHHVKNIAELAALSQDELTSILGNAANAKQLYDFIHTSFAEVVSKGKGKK
T1 sequence (P07992 whole entry, further chain): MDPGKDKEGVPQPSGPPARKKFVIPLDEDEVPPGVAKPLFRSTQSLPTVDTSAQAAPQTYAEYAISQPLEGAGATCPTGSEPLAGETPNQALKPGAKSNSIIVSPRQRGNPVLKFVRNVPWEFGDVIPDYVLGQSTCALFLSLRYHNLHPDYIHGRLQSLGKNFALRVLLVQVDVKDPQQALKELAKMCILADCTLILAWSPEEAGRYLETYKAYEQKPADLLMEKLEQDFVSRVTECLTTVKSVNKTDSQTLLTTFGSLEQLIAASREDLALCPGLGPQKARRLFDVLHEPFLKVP

Question: `O=c1c(O)c(-c2cc(O)c(O)c(O)c2)oc2cc(O)cc(O)c12` [Myricetin] was tested. Which IC50 did it give?
Answer: The IC50 was roughly 0.15 µM.

Source: paper PMC6267282, “Targeting the DNA Repair Endonuclease ERCC1-XPF with Green Tea Polyphenol Epigallocatechin-3-Gallate (EGCG) and Its Prodrug to Enhance Cisplatin Efficacy in Human Cancer Cells” (Nutrients, 2018)
